Where two headings read alike, the source gives them in different places.
Biological target: recombinant eIF4E (Homo sapiens (Human), UniProt P06730)
Assay: Fluorescence polarization competition assay for eIF4E binding potency
In short: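 IC50 derived from fluorescence polarization over an 8-point, 3-fold compound series after 30 min room-temperature equilibration in the dark. Mix: eIF4E 75 nM pre-bound 5 min to 20 nM EDA-m^7GDP-ATTO-550; buffer 20 mM Tris pH 7.5, 100 mM NaCl, 1 mM DTT, 0.02% Tween-20; DMSO 1%.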

[1] = fluorescence polarization competition, 75 nM recombinant eIF4E, 20 nM EDA-m7GDP-ATTO-550, IC50 class, read-out: elF4E FP
[2] = inhibition of eIF4E/EDA-m7GDP-ATTO-550 binding by 50%, Table 4B calculated values, read-out: IC50
[3] = inhibition of eIF4E/EDA-m7GDP-ATTO-550 binding, calculated IC50 values, Table 4B, read-out: IC50

Chain of recombinant eIF4E (P06730 whole entry): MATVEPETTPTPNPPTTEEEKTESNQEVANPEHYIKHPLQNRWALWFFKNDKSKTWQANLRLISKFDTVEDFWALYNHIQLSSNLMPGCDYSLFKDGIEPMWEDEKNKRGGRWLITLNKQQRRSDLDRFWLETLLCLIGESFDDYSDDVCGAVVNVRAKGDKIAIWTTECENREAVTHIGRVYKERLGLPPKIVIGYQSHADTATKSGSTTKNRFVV

Row | SMILES | IC50 [1] [nM] | IC50 [2] [nM] | IC50 [3] [nM]
1 | Cc1nc2c(N(C)C3CCN(CC(F)(F)F)CC3)ncc(C#N)c2c(=O)n1CCOc1ccc(Cl)cc1-c1ccnc2c(C(=O)O)csc12 [compound 861] | < 50 | 24.6 | –
2 | N#Cc1cc2c(=O)n(CCOc3ccc(Cl)cc3-c3cccc(C(=O)O)c3)c(C(F)F)nc2cn1 [compound 1996] | – | – | 189
3 | Cc1nc2cc(C(F)(F)F)c(CN3CCOCC3)c(C#N)c2c(=O)n1CCOc1ccc(Cl)cc1-c1ccnc2c(C(=O)O)csc12 [compound 501] | < 50 | 25.7 | –
4 | Cc1cc(-c2cc(Cl)ccc2OCCn2c(C)nc3c(OC(F)F)ncc(C#N)c3c2=O)c2scc(C(=O)O)c2n1 [compound 604] | 50 to 1000 | 70.7 | –
5 | Cc1cc2nccc(-c3cc(Cl)ccc3OCCn3c(C)nc4cc(C(F)(F)F)c(N5CCN(C)CC5)c(C#N)c4c3=O)c2s1 [compound 1248] | 50 to 1000 | – | 60.7
6 | CCc1cc(-c2cc(Cl)ccc2OCCn2c(C)nc3cc(C(F)(F)F)c(C4=CCN(C)CC4)c(C#N)c3c2=O)c2scc(C(=O)O)c2n1 [compound 1088] | 50 to 1000 | 53.3 | –
7 | Cc1cc(-c2cc(Cl)ccc2OCCn2c(C)nc3cnc(C#N)cc3c2=O)c2scc(C(=O)NS(C)(=O)=O)c2n1 [compound 598] | 50 to 1000 | 57.2 | –
8 | Cc1nc2cnc(N(C)C3CCN(CC(F)(F)C(F)F)CC3)c(C#N)c2c(=O)n1CC#Cc1ccc(Cl)cc1-c1ccnc2c(C(=O)NS(=O)(=O)c3ccncc3)csc12 [compound 1705] | – | – | 4.8
9 | Cc1nc2cnc(N3CC4(C3)CN(C(C)(C)C(F)F)C4)c(C#N)c2c(=O)n1CCOc1ccc(Cl)cc1-c1ccnc2c(C(=O)O)csc12 [compound 823] | < 50 | 11.5 | –
10 | Cc1nc2cc(Cl)c(S(C)(=O)=O)c(C#N)c2c(=O)n1CCOc1ccc(Cl)cc1-c1ccnc2c(C(=O)O)csc12 [compound 493] | 50 to 1000 | 94.2 | –
11 | Cc1nc2cc(C(F)(F)F)c(N3CCN(C)CC3)c(C#N)c2c(=O)n1CCOc1ccc(Cl)cc1-c1ncnc2ccsc12 [compound 1250] | 50 to 1000 | – | 75.8
12 | Cc1cnc(C)c(-c2c(C(F)(F)F)cc3nc(C)n(CCOc4ccc(Cl)cc4-c4cc(C)nc5c(C(=O)O)csc45)c(=O)c3c2C#N)c1 [compound 902] | < 50 | 14.2 | –
13 | Cc1cc(-c2cc(Cl)ccc2OCCn2c(C)nc3cc(C(F)(F)F)c(N4CCC(F)(F)CC4)nc3c2=O)c2scc(C(=O)O)c2n1 [compound 802] | < 50 | 35.9 | –
14 | Cc1cc(-c2cc(Cl)ccc2OCCn2c(C)nc3c(C)nc(-c4ccccc4F)c(C#N)c3c2=O)c2scc(C(=O)O)c2n1 [compound 476] | < 50 | 33.9 | –
15 | CNc1c(Cl)cc2nc(C)n(CCOc3ccc(Cl)cc3-c3cc(C)nc4c(C(=O)O)csc34)c(=O)c2c1C#N [compound 694] | < 50 | 19.1 | –
16 | Cc1nc2cc(C(F)(F)F)c(CN3CCN(C)CC3)c(C#N)c2c(=O)n1CCOc1ccc(Cl)cc1-c1cc(CCF)nc2c(C(=O)O)csc12 [compound 644] | < 50 | 4.97 | –
17 | Cc1cc(-c2cc(Cl)ccc2OCCn2c(C)nc3cc(C(F)(F)F)c(CN(C)C)c(C#N)c3c2=O)c2scc(C(=O)O)c2n1 [compound 559] | < 50 | 8.69 | –
18 | Cc1nc2cnc(N3CCN(C4CC(F)(F)C4)CC3)c(C#N)c2c(=O)n1CC#Cc1ccc(Cl)cc1-c1ccnc2c(C(=O)O)csc12 [compound 1163] | < 50 | 24.8 | –
19 | Cc1cc(-c2cc(Cl)ccc2OCCn2c(C)nc3cnc(C(C)C)c(C#N)c3c2=O)c2scc(C(=O)O)c2n1 [compound 432] | < 50 | 25.8 | –
20 | Cc1cc(-c2cc(Cl)ccc2OCCn2c(C)nc3cnc(NCC(F)F)c(C#N)c3c2=O)c2scc(C(=O)O)c2n1 [compound 974] | < 50 | 23.6 | –
21 | Cc1nc2cnc(N3CCN(CCCF)CC3)c(C#N)c2c(=O)n1CC#Cc1ccc(Cl)cc1-c1ccnc2c(C(=O)O)csc12 [compound 1457] | – | – | 18

Reference: patent US11286268B1, “EIF4E-inhibiting compounds and methods” (EFFECTOR THERAPEUTICS, INC., priority 2019, dated 2022)
